Molecules are shown by their SMILES.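 1) Cells in 96-well plates. 2) Compound, 48 h, 5 concentrations. 3) Linear interpolation between surrounding doses. 4) Unreached endpoint = highest concentration. GI50 = concentration required for 50% inhibition of growth. At the TGI there is no net growth.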

17 molecules from PubChem BioAssay (NCI) can be followed below.

Test systems include HOP-92 NSCLC; EKVX NSCLC; LOX IMVI melanoma; SNB-75 CNS; SK-MEL-2 melanoma; NCI-H522 lung; COLO 205 colon; RXF 393 renal; MDA-MB-435.
Test in all cases: NCI tumour cell line growth inhibition, 48 h

For the molecule `COc1ccc(NC(=O)CSC2=C(Nc3cccc(Br)c3)C(=O)N(Cc3ccccc3)C2=O)cc1Cl`, the GI50 in the experiment on HOP-92 NSCLC is 24.5 µM; in the experiment on EKVX NSCLC, 84.8 µM; in the experiment with LOX IMVI melanoma, 40.4 µM; with SNB-75 CNS, greater than 100 µM; in the experiment with SK-MEL-2 melanoma, greater than 100 µM; in the experiment on NCI-H522 lung it was 6.85 µM. The GI50 in the experiment with COLO 205 colon, in the experiment with RXF 393 renal and in the experiment on MDA-MB-435 was greater than 100 µM each time. In addition, the TGI in the experiment on HOP-92 NSCLC is greater than 100 µM; with EKVX NSCLC, greater than 100 µM; with LOX IMVI melanoma it was greater than 100 µM; with SNB-75 CNS, greater than 100 µM; with SK-MEL-2 melanoma, greater than 100 µM; in the experiment with NCI-H522 lung it was 82.2 µM. Moreover, the TGI in the experiment on COLO 205 colon, in the experiment on RXF 393 renal and with MDA-MB-435 was greater than 100 µM in each case.

For `CC1=CC(=O)CC2(C)CC[C@@H]3C[C@]12OC3(C)C` (stereo partly specified), the TGI with HOP-92 NSCLC, in the experiment on EKVX NSCLC, in the experiment with LOX IMVI melanoma, in the experiment with SNB-75 CNS, in the experiment with SK-MEL-2 melanoma and in the experiment with NCI-H522 lung was greater than 100 µM each time. The TGI in the experiment on COLO 205 colon and with RXF 393 renal was greater than 100 µM throughout.

Turning to `COc1ccc(NC(=O)/C(=C/c2ccccc2)C(C)=O)cc1`, the TGI was found to be 29.6 µM in the experiment with HOP-92 NSCLC; 49.4 µM in the experiment on EKVX NSCLC; 27.8 µM with LOX IMVI melanoma; 21 µM in the experiment with SNB-75 CNS; 28.6 µM with SK-MEL-2 melanoma; 4.6 µM with NCI-H522 lung. This molecule showed a TGI with COLO 205 colon of 35.7 µM.

Consider `Cc1ccccc1NC(=O)c1cc(-c2ccc([N+](=O)[O-])cc2)nc(=S)[nH]1`, for which the TGI with HOP-92 NSCLC, in the experiment with EKVX NSCLC, in the experiment with LOX IMVI melanoma, with SK-MEL-2 melanoma, with COLO 205 colon and in the experiment with RXF 393 renal was greater than 100 µM throughout.

For the molecule `N/N=C1\C(=O)N(C2CCCCCC2)C(=O)C1C(=O)NC1CCCCCC1` (stereo unspecified), the TGI is 41.6 µM in the experiment with HOP-92 NSCLC; greater than 100 µM in the experiment with EKVX NSCLC; 37.6 µM in the experiment on SK-MEL-2 melanoma; 60 µM in the experiment on NCI-H522 lung; greater than 100 µM in the experiment with COLO 205 colon; 69.8 µM in the experiment with RXF 393 renal.

With `O=C(Cc1nc2ccccc2c(=O)n1-c1ccccc1Cl)c1ccncc1`, the TGI is greater than 100 µM with HOP-92 NSCLC; greater than 100 µM in the experiment on EKVX NSCLC; greater than 100 µM in the experiment on LOX IMVI melanoma; 71.7 µM in the experiment on SNB-75 CNS; greater than 100 µM in the experiment with SK-MEL-2 melanoma; greater than 100 µM in the experiment with NCI-H522 lung. The TGI in the experiment on COLO 205 colon and in the experiment on RXF 393 renal was greater than 100 µM throughout.

Regarding `N#Cc1ccccc1C(Cl)(Cl)c1cnccn1`, the TGI with HOP-92 NSCLC is 65.4 µM; with EKVX NSCLC, greater than 100 µM; in the experiment with LOX IMVI melanoma, 61 µM; in the experiment on SK-MEL-2 melanoma, greater than 100 µM; in the experiment on NCI-H522 lung, 38.4 µM; in the experiment on COLO 205 colon it was greater than 100 µM. For the same molecule, in the experiment on RXF 393 renal, the TGI was greater than 100 µM.

Consider `CCC[CH2][Sn]([Cl])([Cl])[CH2]CCC`, for which the GI50 was 1.15 µM in the experiment on HOP-92 NSCLC; 0.848 µM in the experiment with EKVX NSCLC; 0.464 µM in the experiment with LOX IMVI melanoma; 0.894 µM with SNB-75 CNS; 0.495 µM with SK-MEL-2 melanoma; 1.15 µM with COLO 205 colon. Also, the GI50 in the experiment with RXF 393 renal was 0.232 µM. Moreover, the TGI in the experiment on HOP-92 NSCLC came to 2.64 µM; in the experiment with EKVX NSCLC, 2.25 µM; with LOX IMVI melanoma, 1.84 µM; in the experiment with SNB-75 CNS, 2.28 µM; in the experiment on SK-MEL-2 melanoma, 1.54 µM; in the experiment with COLO 205 colon it was 3.2 µM. The molecule also gave a TGI in the experiment on RXF 393 renal of 0.49 µM.

As for `CC1=C(C(=O)CC(=O)C(=O)Nc2cc(C)ccc2C)Sc2ccccc2N1`, the TGI in the experiment on HOP-92 NSCLC, in the experiment with EKVX NSCLC, with LOX IMVI melanoma, with SK-MEL-2 melanoma, in the experiment with NCI-H522 lung and with RXF 393 renal was greater than 100 µM each time.

For `CC(C)(C)c1cc(C(O)(C(F)(F)F)C(F)(F)F)c2c(c1)C(C(F)(F)F)(C(F)(F)F)OC(C)(C(C)(C)C)N2` (stereo unspecified), the TGI with EKVX NSCLC is 22.4 µM; in the experiment with SNB-75 CNS, 8.96 µM; in the experiment with SK-MEL-2 melanoma it was 17.7 µM; in the experiment on NCI-H522 lung it was 5.24 µM; in the experiment on COLO 205 colon it was 4.02 µM; in the experiment with RXF 393 renal it was 16.2 µM.

On to `CCc1ccc(NC(=O)NC(=O)c2ccccc2[N+](=O)[O-])cc1Oc1ncc(Cl)cn1`, for which the TGI is greater than 100 µM in the experiment with HOP-92 NSCLC; greater than 100 µM in the experiment on EKVX NSCLC; 14.5 µM in the experiment on LOX IMVI melanoma; 0.106 µM with COLO 205 colon; 73.4 µM with RXF 393 renal; 0.0332 µM with MDA-MB-435.

For `COC/C=C\COC`, the TGI in the experiment with HOP-92 NSCLC, with EKVX NSCLC, in the experiment with LOX IMVI melanoma, in the experiment with SNB-75 CNS, with SK-MEL-2 melanoma and in the experiment with COLO 205 colon was greater than 100 µM each time. The molecule further displayed a TGI with RXF 393 renal greater than 100 µM.

As for `CCOC(=O)C(=O)Nc1ccccc1C`, the TGI in the experiment on HOP-92 NSCLC, with EKVX NSCLC, with LOX IMVI melanoma, in the experiment on SNB-75 CNS, in the experiment with SK-MEL-2 melanoma and in the experiment on NCI-H522 lung was greater than 100 µM each time. In addition, the TGI with COLO 205 colon and in the experiment with RXF 393 renal was greater than 100 µM throughout.

Take `CC(Oc1ccc2c(-c3ccccc3)cc(=O)oc2c1)C(=O)O` (stereo unspecified): the TGI in the experiment with HOP-92 NSCLC, in the experiment on EKVX NSCLC, in the experiment with LOX IMVI melanoma, in the experiment with SNB-75 CNS, in the experiment with NCI-H522 lung and with COLO 205 colon was greater than 100 µM each time. The TGI in the experiment on RXF 393 renal was greater than 100 µM.

As to `CCNC(=O)COc1ccc(Br)cc1Br`, the TGI with HOP-92 NSCLC was greater than 100 µM; with EKVX NSCLC, 34.3 µM; in the experiment with LOX IMVI melanoma, greater than 100 µM; in the experiment with SNB-75 CNS, greater than 100 µM; in the experiment with SK-MEL-2 melanoma, greater than 100 µM; in the experiment with NCI-H522 lung, greater than 100 µM. Besides, the TGI in the experiment on COLO 205 colon and with RXF 393 renal was greater than 100 µM throughout.

For the molecule `CC1=C[C@H]2c3c([nH]c4ccccc34)C(c3c[nH]c4ccccc34)[C@H]2CC1` (stereo partly specified), the TGI in the experiment with HOP-92 NSCLC worked out at 5.34 µM; in the experiment with EKVX NSCLC, 29.7 µM; in the experiment with LOX IMVI melanoma it was 5.83 µM; with SNB-75 CNS, 19 µM; with NCI-H522 lung, 18.5 µM; with COLO 205 colon, 13 µM. Moreover, the TGI in the experiment on RXF 393 renal was found to be 4.19 µM.

With `C#Cc1cccc(N2C(=O)c3c(c(-c4ccccc4)c(-c4ccc(Cc5ccc(-c6c(-c7ccccc7)c7c(c(-c8ccccc8)c6-c6ccccc6)C(=O)N(c6cccc(C#C)c6)C7=O)cc5)cc4)c(-c4ccccc4)c3-c3ccccc3)C2=O)c1`, the TGI in the experiment on HOP-92 NSCLC is 29 µM; in the experiment with EKVX NSCLC it was greater than 100 µM; in the experiment with SNB-75 CNS it was 79.9 µM; in the experiment with SK-MEL-2 melanoma, greater than 100 µM; in the experiment with NCI-H522 lung it was greater than 100 µM; in the experiment on COLO 205 colon, 66.5 µM. In the experiment on RXF 393 renal, the TGI was greater than 100 µM.
